Values of other authors in patent publication US20030114475A1, “Methods for the treatment of addiction” (Addiction Therapies, Inc., priority 2001, published 2003).

How the values were obtained:
[1] = tested on: cocaine self-administration
[2] = in vivo
[3] = target: dopamine transporter (Homo sapiens, UniProt Q01959)
[4] = in vivo; remark: listed apart in the source

Chain of dopamine transporter (Q01959 whole entry): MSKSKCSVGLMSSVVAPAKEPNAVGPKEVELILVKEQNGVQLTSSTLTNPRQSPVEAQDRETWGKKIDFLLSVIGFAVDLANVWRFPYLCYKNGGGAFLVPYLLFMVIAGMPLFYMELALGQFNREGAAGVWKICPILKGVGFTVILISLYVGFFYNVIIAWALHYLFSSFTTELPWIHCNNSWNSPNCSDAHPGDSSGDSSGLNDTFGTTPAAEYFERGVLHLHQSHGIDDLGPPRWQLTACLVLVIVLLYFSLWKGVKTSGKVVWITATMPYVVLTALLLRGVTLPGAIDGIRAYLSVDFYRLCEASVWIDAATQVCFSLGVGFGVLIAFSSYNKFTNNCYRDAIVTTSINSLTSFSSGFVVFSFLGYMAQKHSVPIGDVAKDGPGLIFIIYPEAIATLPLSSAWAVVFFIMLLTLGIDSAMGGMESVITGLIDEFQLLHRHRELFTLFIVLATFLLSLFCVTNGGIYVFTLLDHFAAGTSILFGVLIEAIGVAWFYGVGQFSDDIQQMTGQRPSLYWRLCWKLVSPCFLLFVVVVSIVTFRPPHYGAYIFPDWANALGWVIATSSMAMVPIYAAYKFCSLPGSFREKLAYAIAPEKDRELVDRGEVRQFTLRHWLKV

Structure (SMILES) | effect on cocaine self-administration ([1]; rats) | lever presses for a cocaine infusion after pre-treatment ([1]; rats pre-treated with 53.8 mg/kg, oral, decreased from 150±20 lever presses, unpublished observations, Dr. Susan Schenck) [lever presses] | oral availability [2] | affinity and selectivity for the dopamine transporter [3] | elimination half-life [4] [h] | time to peak plasma concentrations [4] [h]
Cc1ccc(-c2cc([C@@H]3C4CCC(C[C@@H]3c3ccc(Cl)cc3)N4C)on2)cc1 (stereo partly drawn) [RTI-336] | inhibits cocaine self-administration | 36±14 | orally available | high affinity and selectivity | – | –
COC(=O)C(c1ccccc1)C1CCCCN1 (stereo not drawn) [Methylphenidate, methylphenidate] | – | – | – | – | 2 to 3 | 1 to 3
